Test results published in patent publication US8148391B2 (Cephalon, Inc., priority 2006, dated 2012).
Like-named read-outs stand apart in the source and are kept apart here.

What was measured:
[1] = biological target: T1, baculovirus-expressed ALK (Homo sapiens, UniProt Q9UM73); experiment: ALK Kinase Assay (ELISA-type, time-resolved fluorescence); format: biochemical
T1 construct: host or cells: baculovirus expression system
How it was run: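 Plates coated with phospholipase C-γ substrate (10 μg/mL in TBS); reaction started with 30 ng/ml ALK and run 15 min at 37° C. Phosphorylated substrate detected with Eu-N1-labeled PT66 antibody. IC50 from sigmoidal variable-slope fit of percent inhibition vs log concentration.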

[2] = biological target: T2, c-Met (cytoplasmic domain) (Homo sapiens, UniProt P08581); experiment: c-Met Kinase Assay (same methods as for ALK, with modifications); format: biochemical
T2 construct: 10 ng/mL c-Met (cytoplasmic domain, Invitrogen Corporation #PV3143); purchased Invitrogen Corporation PV3143
T2 sequence (P08581 956-1390 limits assumed): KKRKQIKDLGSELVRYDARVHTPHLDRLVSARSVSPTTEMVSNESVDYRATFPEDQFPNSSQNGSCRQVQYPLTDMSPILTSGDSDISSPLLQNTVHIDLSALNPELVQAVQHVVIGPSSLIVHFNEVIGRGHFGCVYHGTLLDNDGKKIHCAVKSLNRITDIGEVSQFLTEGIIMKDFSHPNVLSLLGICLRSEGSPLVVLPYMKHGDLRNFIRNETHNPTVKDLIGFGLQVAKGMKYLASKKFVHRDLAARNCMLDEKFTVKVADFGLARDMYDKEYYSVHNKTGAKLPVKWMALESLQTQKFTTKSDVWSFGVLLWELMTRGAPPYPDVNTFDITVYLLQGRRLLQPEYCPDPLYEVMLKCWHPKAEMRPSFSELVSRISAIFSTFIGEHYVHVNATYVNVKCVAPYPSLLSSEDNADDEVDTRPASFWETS
How it was run: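 Europium-labeled PT66 antibody (Eu-N1) detects substrate phosphorylation on wells coated with phospholipase C-γ at 10 μg/mL. The kinase, the cytoplasmic domain of c-Met at 10 ng/mL, starts the reaction, which proceeds 15 minutes at 37° C.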

[3] = 1 μM ATP (Km level), 30 ng/ml ALK, 37° C., 15 minutes, read-out: ALK Activity (ALK kinase inhibition, IC50 class)
[4] = 1 μM ATP (Km level), 10 ng/mL c-Met, read-out: cMet Activity (c-Met kinase inhibition, IC50 class)
[5] = ALK kinase inhibition, 1 μM ATP (Km level), read-out: ALK Activity
[6] = c-Met kinase inhibition, 1 μM ATP (Km level), read-out: cMet Activity
[7] = 1 μM ATP (Km level), read-out: ALK Activity (ALK Kinase Inhibition, IC50)
[8] = 1 μM ATP (Km level), read-out: cMet Activity (c-Met Kinase Inhibition, IC50)
[9] = ALK kinase inhibition, 1 μM ATP, read-out: ALK Activity
[10] = c-Met kinase inhibition, 1 μM ATP, read-out: cMet Activity

T1 sequence (Q9UM73 19-1620): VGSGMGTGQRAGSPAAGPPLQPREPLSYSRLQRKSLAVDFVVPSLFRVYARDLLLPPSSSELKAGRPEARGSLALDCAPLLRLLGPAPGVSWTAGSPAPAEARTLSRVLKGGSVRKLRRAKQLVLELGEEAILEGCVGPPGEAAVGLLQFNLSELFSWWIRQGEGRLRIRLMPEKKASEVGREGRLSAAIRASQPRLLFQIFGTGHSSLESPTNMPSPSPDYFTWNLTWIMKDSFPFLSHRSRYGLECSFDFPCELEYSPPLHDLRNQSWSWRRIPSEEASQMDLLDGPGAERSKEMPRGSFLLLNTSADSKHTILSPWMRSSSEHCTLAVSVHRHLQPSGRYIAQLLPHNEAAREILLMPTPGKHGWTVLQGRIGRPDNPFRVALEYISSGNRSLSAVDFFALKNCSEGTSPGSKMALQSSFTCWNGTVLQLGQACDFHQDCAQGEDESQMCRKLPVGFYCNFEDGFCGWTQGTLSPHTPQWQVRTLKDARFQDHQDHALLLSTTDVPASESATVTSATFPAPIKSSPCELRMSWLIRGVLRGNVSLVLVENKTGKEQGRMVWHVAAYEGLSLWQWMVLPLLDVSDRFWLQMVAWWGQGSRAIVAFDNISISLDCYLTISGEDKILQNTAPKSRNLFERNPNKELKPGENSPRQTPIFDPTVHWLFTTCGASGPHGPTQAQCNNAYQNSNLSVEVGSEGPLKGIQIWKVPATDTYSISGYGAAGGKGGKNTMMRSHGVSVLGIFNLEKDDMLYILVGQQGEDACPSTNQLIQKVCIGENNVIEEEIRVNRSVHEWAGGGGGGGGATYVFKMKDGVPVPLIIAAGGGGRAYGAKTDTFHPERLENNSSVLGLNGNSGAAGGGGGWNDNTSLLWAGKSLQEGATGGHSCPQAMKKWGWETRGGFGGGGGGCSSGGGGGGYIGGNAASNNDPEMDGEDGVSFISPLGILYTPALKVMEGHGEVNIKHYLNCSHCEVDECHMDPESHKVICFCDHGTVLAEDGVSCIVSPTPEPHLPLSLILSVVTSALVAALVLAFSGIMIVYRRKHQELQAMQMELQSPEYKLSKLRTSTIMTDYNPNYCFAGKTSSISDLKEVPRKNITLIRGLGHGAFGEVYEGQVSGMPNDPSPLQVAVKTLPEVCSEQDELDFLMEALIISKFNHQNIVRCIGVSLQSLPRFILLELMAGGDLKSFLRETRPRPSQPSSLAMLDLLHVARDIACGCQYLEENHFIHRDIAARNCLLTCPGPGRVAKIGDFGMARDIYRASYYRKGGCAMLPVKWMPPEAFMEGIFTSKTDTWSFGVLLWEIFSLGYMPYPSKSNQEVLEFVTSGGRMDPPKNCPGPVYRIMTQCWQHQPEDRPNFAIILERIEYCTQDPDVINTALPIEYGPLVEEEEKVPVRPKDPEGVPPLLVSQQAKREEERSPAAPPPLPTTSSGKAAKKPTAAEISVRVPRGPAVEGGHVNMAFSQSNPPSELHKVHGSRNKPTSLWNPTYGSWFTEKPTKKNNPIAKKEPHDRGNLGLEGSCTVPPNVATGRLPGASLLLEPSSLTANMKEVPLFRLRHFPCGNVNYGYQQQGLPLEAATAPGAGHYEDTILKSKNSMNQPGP

| Molecule | IC50 [1, 3] | IC50 [2, 4] | further results |
| --- | --- | --- | --- |
| CNC(=O)c1cc(F)cc(F)c1Nc1nc(Nc2ccc3c(c2)CCN(CCOC)CC3)ncc1Cl [Example 1277, 2-{5-Chloro-2-[3-(2-methoxy-ethyl)-2,3,4,5-tetrahydro-1H-3-benzazepin-7-ylamino]-pyrimidin-4-ylamino}-3,5-difluoro-N-methyl-benzamide] | 100 to 1000 nM | 100 to 1000 nM | – |
| CCN1CC2OC(C1)c1cc(Nc3ncc(Cl)c(Nc4ccccc4C(=O)NC)n3)ccc12 (stereo not drawn) [Example 61, 2-[5-Chloro-2-(10-ethyl-12-oxa-10-aza-tricyclo[6.3.1.0*2,7*]dodeca-2,4,6-trien-4-ylamino)-pyrimidin-4-ylamino]-N-methyl-benzamide] | – | – | IC50 [1, 5]: < 100 nM; IC50 [2, 6]: 100 to 1000 nM |
| CNC(=O)c1ccccc1Nc1nc(Nc2ccc3c(c2)NCCN(C)C3=O)ncc1Cl [Example 412, 2-[5-Chloro-2-(4-methyl-5-oxo-2,3,4,5-tetrahydro-1H-benzo[e][1,4]diazepin-8-ylamino)-pyrimidin-4-ylamino]-N-methylbenzamide] | – | – | IC50 [1, 5]: < 100 nM; IC50 [2, 6]: < 100 nM |
| CCNC(=O)c1cccc(F)c1Nc1nc(Nc2cc3c(cc2OC)CCN(CC(=O)N(C)C)CC3)ncc1Cl [Example 1119, 2-[5-Chloro-2-(3-dimethylcarbamoylmethyl-8-methoxy-2,3,4,5-tetrahydro-1H-benzo[d]azepin-7-ylamino)-pyrimidin-4-ylamino]-N-ethyl-3-fluoro-benzamide] | < 100 nM | 1000 to 10000 nM | – |
| CCOC(=O)N1C2CCC1c1cc(C(=O)OC)cc(Nc3ncc(Cl)c(Nc4ccccc4C(=O)NC)n3)c1C2 (stereo not drawn) [Example 78, 6-[5-Chloro-4-(2-methylcarbamoyl-phenylamino)-pyrimidin-2-ylamino]-12-aza-tricyclo[7.2.1.0*2,7*]dodeca-2(7),3,5-triene-4,12-dicarboxylic acid 12-ethyl ester 4-methyl ester] | – | – | IC50 [1, 5]: < 100 nM; IC50 [2, 6]: 100 to 1000 nM |
| COc1cc2c(cc1Nc1ncc(Cl)c(Nc3cc(C(N)=O)ccc3OC)n1)CCN(CCS(C)(=O)=O)CC2 [Example 1137, 3-{5-Chloro-2-[3-(2-methanesulfonyl-ethyl)-8-methoxy-2,3,4,5-tetrahydro-1H-benzo[d]azepin-7-ylamino]-pyrimidin-4-ylamino}-4-methoxy-benzamide] | 100 to 1000 nM | > 10000 nM | – |
| CCN1C(=O)C(N(C)C)CCc2c1ccc(Nc1ncc(Cl)c(Nc3ccccc3S(=O)(=O)N(C)C)n1)c2OC (stereo not drawn) [Example 1348, 2-[5-Chloro-2-(3-dimethylamino-1-ethyl-6-methoxy-2-oxo-2,3,4,5-tetrahydro-1H-benzo[b]azepin-7-ylamino)-pyrimidin-4-ylamino]-N,N-dimethyl-benzenesulfonamide] | < 100 nM | > 10000 nM | – |
| COc1cc2c(cc1Nc1ncc(Cl)c(Nc3ccccc3S(=O)(=O)N(C)C)n1)CCC(N1CCOCC1)CC2 (stereo not drawn) [Example 1049, 2-[5-Chloro-2-(3-methoxy-7-morpholin-4-yl-6,7,8,9-tetrahydro-5H-benzocyclohepten-2-ylamino)-pyrimidin-4-ylamino]-N,N-dimethyl-benzenesulfonamide] | < 100 nM | > 10000 nM | – |
| CNC(=O)c1ccccc1Nc1nc(Nc2cc3c(cc2OC)CCC(NCCO)CC3)ncc1Cl (stereo not drawn) [Example 1092, 2-{5-Chloro-2-[7-(2-hydroxy-ethylamino)-3-methoxy-6,7,8,9-tetrahydro-5H-benzocyclohepten-2-ylamino]-pyrimidin-4-ylamino}-N-methyl-benzamide] | < 100 nM | > 10000 nM | – |
| CNC(=O)c1ccccc1Nc1nc(Nc2ccc3c(c2)CCN(C[C@@H](O)C(F)(F)F)CC3)ncc1Cl [Example 448, 2-{5-Chloro-2-[3-((R)-3,3,3-trifluoro-2-hydroxy-propyl)-2,3,4,5-tetrahydro-1H-benzo[d]azepin-7-ylamino]-pyrimidin-4-ylamino}-N-methyl-benzamide] | – | – | IC50 [1, 5]: < 100 nM; IC50 [2, 6]: < 100 nM |
| COc1cc2c(cc1Nc1ncc(Cl)c(Nc3ccc(N4CCOCC4)cc3OC)n1)CCN(Cc1ncco1)CC2 [Example 1180, 5-Chloro-N*4*-(2-methoxy-4-morpholin-4-yl-phenyl)-N*2*-(8-methoxy-3-oxazol-2-ylmethyl-2,3,4,5-tetrahydro-1H-benzo[d]azepin-7-yl)-pyrimidine-2,4-diamine] | < 100 nM | > 10000 nM | – |
| CCN1CCc2cc(Nc3ncc(Cl)c(Nc4ccccc4C(=O)NC)n3)c(OC)cc2CC1 [Example 48, 2-[5-Chloro-2-(3-ethyl-8-methoxy-2,3,4,5-tetrahydro-1H-benzo[d]azepin-7-ylamino)-pyrimidin-4-ylamino]-N-methyl-benzamide] | – | – | IC50 [1, 5]: < 100 nM; IC50 [2, 6]: 1000 to 10000 nM |
| CNC(=O)C1(Nc2nc(Nc3cc4c(cc3OC)CCN(CCOC)CC4)ncc2Cl)CC1 [Example 1196, 1-{5-Chloro-2-[8-methoxy-3-(2-methoxy-ethyl)-2,3,4,5-tetrahydro-1H-benzo[d]azepin-7-ylamino]-pyrimidin-4-ylamino}-cyclopropanecarboxylic acid methylamide] | 1000 to 10000 nM | > 10000 nM | – |
| CNC(=O)c1ccccc1Nc1nc(Nc2ccc3c(c2)CN(CCO)CCS3)ncc1Cl [Example 528, 2-{5-Chloro-2-[8-(hydroxyl-ethyl)-6,7,8,9-tetrahydro-5-thia-8-aza-benzoylcyclohepten-2-ylamino]-pyrimidin-4-ylamino}-N-methyl-benzamide] | – | – | IC50 [1, 7]: < 100 nM; IC50 [2, 8]: < 100 nM |
| CNC(=O)c1ccccc1Nc1nc(Nc2ccc3c(c2)-n2ccnc2CCC3)ncc1Cl [Example 1836, 2-[5-Chloro-2-(5,6-dihydro-4H-3,10b-diaza-benzo[e]azulen-9-ylamino)-pyrimidin-4-ylamino]-N-methyl-benzamide] | – | – | IC50 [1, 9]: 100 to 1000 nM; IC50 [2, 10]: < 100 nM |
| CC(=O)OCCN1CCSc2ccc(Nc3ncc(Cl)c(N[C@@H]4CCCC[C@H]4NS(C)(=O)=O)n3)cc2C1 [Example 526, Acetic acid 2-{2-[5-chloro-4-((1R,2R)-2-methanesulfonylamino-cyclohexylamino)-pyrimidin-2-ylamino]-6,7-dihydro-9H-5-thia-8-aza-benzocyclohepten-8-yl}-ethyl ester] | – | – | IC50 [1, 7]: < 100 nM; IC50 [2, 8]: 1000 to 10000 nM |
| COc1cc2c(cc1Nc1ncc(Cl)c(Nc3ccccc3S(=O)(=O)C(C)C)n1)CCN(CCS(C)(=O)=O)CC2 [Example 1164, 5-Chloro-N*2*-[3-(2-methanesulfonyl-ethyl)-8-methoxy-2,3,4,5-tetrahydro-1H-benzo[d]azepin-7-yl]-N*4*-[2-(propane-2-sulfonyl)-phenyl]-pyrimidine-2,4-diamine] | < 100 nM | 1000 to 10000 nM | – |
| COc1c(Nc2ncc(Cl)c(Nc3ccccc3S(=O)(=O)N(C)C)n2)ccc2c1CC(N1CCOCC1)CCC2 (racemic) [Example 1210, 2-[5-Chloro-2-(1-methoxy-8-morpholin-4-yl-6,7,8,9-tetrahydro-5H-benzocyclohepten-2-ylamino)-pyrimidin-4-ylamino]-N,N-dimethyl-benzenesulfonamide] | < 100 nM | 1000 to 10000 nM | – |
| 3-{2-[2-(1-Acetyl-4-oxo-1,2,3,4,5,6-hexahydro-1,5-benzodiazepin-8-ylamino)-5-chloro-pyrimidin-4-ylamino]-phenoxy}-propionitrile [Example 1237] | < 100 nM | 100 to 1000 nM | – |
| COc1cc2c(cc1Nc1ncc(Cl)c(Nc3ccc(N4CCOCC4)cc3OC)n1)CCN(CC(=O)N1CCOCC1)CC2 [Example 1526, 2-{7-[5-Chloro-4-(2-methoxy-4-morpholin-4-yl-phenylamino)-pyrimidin-2-ylamino]-8-methoxy-1,2,4,5-tetrahydro-3-benzazepin-3-yl}-1-morpholin-4-yl-ethanone] | – | – | IC50 [1, 9]: < 100 nM; IC50 [2, 10]: > 10000 nM |
| CNC(=O)c1cccc(F)c1Nc1nc(Nc2ccc3c(c2)CCC(NCC(F)F)CC3)ncc1Cl (stereo not drawn) [Example 664, 2-{5-Chloro-2-[7-(2,2-difluoro-ethylamino)-6,7,8,9-tetrahydro-5H-benzocyclohepten-2-ylamino]-pyrimidin-4-ylamino}-3-fluoro-N-methyl-benzamide] | – | – | IC50 [1, 7]: < 100 nM; IC50 [2, 8]: < 100 nM |
| C#CCNC(=O)c1cccc(F)c1Nc1nc(Nc2ccc3c(c2)NC(=O)CCC3)ncc1Cl [Example 1404, 2-[5-Chloro-2-(2-oxo-2,3,4,5-tetrahydro-1H-benzo[b]azepin-8-ylamino)-pyrimidin-4-ylamino]-3-fluoro-N-prop-2-ynyl-benzamide] | 100 to 1000 nM | 100 to 1000 nM | – |
| CCN1C(=O)CCC(C)(C)c2ccc(Nc3ncc(Cl)c(Nc4ccccc4S(C)(=O)=O)n3)cc21 [Example 1248, 8-[5-Chloro-4-(2-methanesulfonyl-phenylamino)-pyrimidin-2-ylamino]-1-ethyl-5,5-dimethyl-1,3,4,5-tetrahydro-1-benzazepin-2-one] | < 100 nM | < 100 nM | – |
| COc1cc2c(cc1Nc1ncc(Cl)c(N[C@@H]3CCCC[C@H]3NS(C)(=O)=O)n1)N(C)CCN(C[C@@H](O)C(F)(F)F)C2 [Example 492, N-((1R,2R)-2-{5-Chloro-2-[7-methoxy-1-methyl-4-((R)-3,3,3-trifluoro-2-hydroxy-propyl)-2,3,4,5-tetrahydro-1H-benzo[e][1,4]diazepin-8-ylamino]-pyrimidin-4-ylamino}-cyclohexyl)-methanesulfonamide] | – | – | IC50 [1, 5]: < 100 nM; IC50 [2, 6]: > 10000 nM |
